Data from ChEMBL document CHEMBL2074419, “Induction of multidrug resistance protein 3 in rat liver is associated with altered vectorial excretion of acetaminophen metabolites” (Drug Metab Dispos, 2003).

Assays:
Format in all cases: functional, organism-based, Sprague-Dawley
[1] = target: T1, ATP-binding cassette sub-family C member 3 (Rattus norvegicus, UniProt O88563); assay: (§1) TP_TRANSPORTER: Western in vivo, liver of SD rat
[2] = target: T2, ATP-binding cassette sub-family C member 2 (Rattus norvegicus, UniProt Q63120); assay: as §1
T2 sequence (Q63120 whole entry): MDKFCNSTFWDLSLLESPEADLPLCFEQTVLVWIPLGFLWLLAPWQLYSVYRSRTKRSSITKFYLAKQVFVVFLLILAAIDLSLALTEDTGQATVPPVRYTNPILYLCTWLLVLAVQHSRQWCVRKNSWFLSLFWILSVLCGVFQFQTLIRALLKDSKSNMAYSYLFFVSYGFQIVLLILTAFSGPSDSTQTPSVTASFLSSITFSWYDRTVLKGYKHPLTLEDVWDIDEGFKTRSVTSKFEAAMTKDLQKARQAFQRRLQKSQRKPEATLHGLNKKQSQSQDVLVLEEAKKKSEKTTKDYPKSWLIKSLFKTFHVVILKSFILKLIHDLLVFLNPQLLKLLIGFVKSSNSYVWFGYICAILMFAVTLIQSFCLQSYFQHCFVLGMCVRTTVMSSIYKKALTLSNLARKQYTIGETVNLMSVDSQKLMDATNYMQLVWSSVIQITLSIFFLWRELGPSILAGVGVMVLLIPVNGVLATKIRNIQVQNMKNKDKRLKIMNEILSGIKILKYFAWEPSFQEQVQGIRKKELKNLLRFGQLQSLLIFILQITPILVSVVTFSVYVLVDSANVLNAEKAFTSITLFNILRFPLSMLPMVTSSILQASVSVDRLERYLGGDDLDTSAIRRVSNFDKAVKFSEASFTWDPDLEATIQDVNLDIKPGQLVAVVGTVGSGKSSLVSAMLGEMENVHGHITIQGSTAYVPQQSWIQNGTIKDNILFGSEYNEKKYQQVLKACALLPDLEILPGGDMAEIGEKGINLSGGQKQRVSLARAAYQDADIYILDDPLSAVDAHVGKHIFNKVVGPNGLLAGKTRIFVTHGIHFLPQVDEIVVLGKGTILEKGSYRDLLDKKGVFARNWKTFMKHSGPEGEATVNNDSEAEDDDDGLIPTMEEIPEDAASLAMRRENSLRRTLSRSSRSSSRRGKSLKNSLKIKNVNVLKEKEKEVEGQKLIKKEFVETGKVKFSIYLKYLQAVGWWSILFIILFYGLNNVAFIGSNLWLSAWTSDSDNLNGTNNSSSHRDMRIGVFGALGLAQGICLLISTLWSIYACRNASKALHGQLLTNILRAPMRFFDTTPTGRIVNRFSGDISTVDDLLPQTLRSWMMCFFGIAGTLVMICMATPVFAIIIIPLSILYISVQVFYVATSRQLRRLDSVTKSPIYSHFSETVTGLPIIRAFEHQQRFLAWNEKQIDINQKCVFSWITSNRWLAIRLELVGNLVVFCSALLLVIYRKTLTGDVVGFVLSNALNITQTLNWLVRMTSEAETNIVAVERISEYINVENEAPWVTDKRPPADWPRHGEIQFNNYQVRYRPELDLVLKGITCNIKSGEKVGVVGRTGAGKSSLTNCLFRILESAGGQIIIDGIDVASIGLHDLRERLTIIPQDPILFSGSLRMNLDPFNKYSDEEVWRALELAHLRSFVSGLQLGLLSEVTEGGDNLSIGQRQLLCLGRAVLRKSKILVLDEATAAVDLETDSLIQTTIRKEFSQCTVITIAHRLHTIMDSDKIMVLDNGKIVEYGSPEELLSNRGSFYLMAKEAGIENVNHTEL

[3] = target: T1, ATP-binding cassette sub-family C member 3; assay: (§2) TP_TRANSPORTER: quantitative PCR in vivo, kidney of SD rat
[4] = target: T2, ATP-binding cassette sub-family C member 2; assay: as §2
[5] = target: T3, ATP-binding cassette subfamily C member 4 (Rattus norvegicus, UniProt F1M3J4); assay: as §2
T3 sequence (F1M3J4 whole entry): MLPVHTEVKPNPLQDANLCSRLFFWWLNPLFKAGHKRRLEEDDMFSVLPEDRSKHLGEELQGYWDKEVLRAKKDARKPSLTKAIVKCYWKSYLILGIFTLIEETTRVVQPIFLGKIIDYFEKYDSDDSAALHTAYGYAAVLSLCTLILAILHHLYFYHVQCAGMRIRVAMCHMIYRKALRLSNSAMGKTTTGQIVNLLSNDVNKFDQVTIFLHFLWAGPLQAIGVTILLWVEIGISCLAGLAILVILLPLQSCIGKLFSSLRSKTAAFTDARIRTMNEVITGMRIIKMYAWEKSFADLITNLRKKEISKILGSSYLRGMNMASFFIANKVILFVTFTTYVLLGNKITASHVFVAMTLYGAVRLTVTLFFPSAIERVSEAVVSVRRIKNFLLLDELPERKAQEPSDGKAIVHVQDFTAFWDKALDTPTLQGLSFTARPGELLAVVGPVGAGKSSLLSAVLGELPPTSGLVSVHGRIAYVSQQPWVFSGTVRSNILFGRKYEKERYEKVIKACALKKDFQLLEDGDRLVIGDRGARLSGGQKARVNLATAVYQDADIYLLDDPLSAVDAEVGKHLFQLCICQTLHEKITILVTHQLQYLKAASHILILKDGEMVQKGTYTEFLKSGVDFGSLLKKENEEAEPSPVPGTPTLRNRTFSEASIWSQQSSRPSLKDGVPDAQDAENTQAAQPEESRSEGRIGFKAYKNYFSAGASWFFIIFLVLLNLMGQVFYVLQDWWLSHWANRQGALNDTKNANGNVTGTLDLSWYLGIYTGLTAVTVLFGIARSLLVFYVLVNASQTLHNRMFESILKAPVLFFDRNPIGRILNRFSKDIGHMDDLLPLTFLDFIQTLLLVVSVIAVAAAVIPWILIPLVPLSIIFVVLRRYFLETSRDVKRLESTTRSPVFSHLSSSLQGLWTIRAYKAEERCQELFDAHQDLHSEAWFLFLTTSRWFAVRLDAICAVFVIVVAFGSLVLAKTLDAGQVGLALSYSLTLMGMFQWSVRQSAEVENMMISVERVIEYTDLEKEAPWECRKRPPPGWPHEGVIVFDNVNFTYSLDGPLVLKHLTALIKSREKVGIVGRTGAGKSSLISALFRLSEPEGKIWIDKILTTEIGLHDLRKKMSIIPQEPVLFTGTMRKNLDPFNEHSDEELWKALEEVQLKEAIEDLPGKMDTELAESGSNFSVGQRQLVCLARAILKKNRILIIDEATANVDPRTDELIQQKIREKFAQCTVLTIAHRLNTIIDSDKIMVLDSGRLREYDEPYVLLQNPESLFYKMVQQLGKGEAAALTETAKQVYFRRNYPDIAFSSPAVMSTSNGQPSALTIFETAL

[6] = target: T1, ATP-binding cassette sub-family C member 3; assay: (§3) TP_TRANSPORTER: quantitative PCR in vivo, liver of SD rat
[7] = target: T3, ATP-binding cassette subfamily C member 4; assay: as §3
[8] = target: T2, ATP-binding cassette sub-family C member 2; assay: as §3

Measured: Activity

T1 sequence (O88563 whole entry): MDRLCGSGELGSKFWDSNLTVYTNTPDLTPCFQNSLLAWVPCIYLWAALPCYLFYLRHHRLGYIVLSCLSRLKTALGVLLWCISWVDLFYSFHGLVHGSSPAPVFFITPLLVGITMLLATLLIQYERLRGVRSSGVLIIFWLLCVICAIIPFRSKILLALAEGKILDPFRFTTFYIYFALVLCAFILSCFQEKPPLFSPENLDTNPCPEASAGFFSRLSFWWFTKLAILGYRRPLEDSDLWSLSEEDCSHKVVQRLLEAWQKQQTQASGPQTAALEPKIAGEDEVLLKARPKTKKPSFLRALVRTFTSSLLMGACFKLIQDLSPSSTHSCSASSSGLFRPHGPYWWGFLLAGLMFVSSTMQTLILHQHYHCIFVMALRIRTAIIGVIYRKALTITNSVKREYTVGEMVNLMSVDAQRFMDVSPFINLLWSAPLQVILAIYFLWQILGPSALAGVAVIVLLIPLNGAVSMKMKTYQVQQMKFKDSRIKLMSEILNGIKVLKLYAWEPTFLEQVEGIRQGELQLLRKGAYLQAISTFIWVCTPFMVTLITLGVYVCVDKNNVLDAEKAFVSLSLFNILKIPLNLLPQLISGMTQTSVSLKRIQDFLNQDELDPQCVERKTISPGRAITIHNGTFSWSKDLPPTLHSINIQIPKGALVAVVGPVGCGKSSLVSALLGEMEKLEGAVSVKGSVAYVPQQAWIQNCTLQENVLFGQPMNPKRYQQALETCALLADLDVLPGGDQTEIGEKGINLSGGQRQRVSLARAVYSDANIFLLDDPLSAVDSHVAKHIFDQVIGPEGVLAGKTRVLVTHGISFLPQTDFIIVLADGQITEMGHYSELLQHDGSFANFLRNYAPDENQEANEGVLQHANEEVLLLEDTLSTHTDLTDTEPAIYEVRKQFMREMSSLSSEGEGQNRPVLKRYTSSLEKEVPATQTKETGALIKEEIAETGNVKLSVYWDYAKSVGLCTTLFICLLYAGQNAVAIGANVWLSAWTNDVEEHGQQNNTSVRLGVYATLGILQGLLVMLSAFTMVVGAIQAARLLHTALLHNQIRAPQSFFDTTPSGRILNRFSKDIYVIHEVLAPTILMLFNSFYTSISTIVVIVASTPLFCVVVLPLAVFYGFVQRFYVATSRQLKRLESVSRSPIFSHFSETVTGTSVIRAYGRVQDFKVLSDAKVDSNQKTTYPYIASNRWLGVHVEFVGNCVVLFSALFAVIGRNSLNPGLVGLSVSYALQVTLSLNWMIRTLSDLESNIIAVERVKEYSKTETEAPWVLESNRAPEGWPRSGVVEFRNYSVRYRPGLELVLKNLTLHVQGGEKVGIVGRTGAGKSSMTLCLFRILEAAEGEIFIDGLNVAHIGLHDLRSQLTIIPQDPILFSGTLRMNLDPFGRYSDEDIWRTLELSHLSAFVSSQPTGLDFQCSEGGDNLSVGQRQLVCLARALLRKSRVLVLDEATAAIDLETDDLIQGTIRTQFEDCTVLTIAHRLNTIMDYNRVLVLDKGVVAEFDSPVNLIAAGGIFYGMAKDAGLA

C=CCSCC=C [DIALLYL SULFIDE]
not listed: [8]
inducer []: all other assays above

Cc1c(-c2cnccn2)ssc1=S [OLTIPRAZ]
inducer []: [1] | [2] | [3] | [6] | [8]

CCC1(c2ccccc2)C(=O)NC(=O)NC1=O [PHENOBARBITAL]
inducer []: [1] | [6]

c1ccc([C@H]2O[C@@H]2c2ccccc2)cc1 (relative stereo)
inducer []: [1] | [2] | [6] | [8] | [7]
